# Legend:
# Assay in all cases: Test C preemergence
# Format in all cases: in vivo
# [1] = system: barnyardgrass (Echinochloa crus-galli); details: for pest or weed control at 31 g/ha / pest or weed control at 62 g/ha / pest or weed control at 125 g/ha / pest or weed control at 16 g/ha: Echinochloa crus-galli, pre-emergence, read-out: Plant response rating, Barnyardgrass; for pest or weed control at 31 g/ha / pest or weed control at 62 g/ha / pest or weed control at 125 g/ha / Plant response rating, Barnyardgrass: scale 0 to 100; for pest or weed control at 16 g/ha: 16 g ai/ha, scale 0 to 100 (0 no effect, 100 complete control)
# Source text: (§1) Seeds of plant species selected from blackgrass (Alopecurus myosuroides), Italian ryegrass (Lolium multiflorum), winter wheat (Triticum aestivum), galium (catchweed bedstraw, Galium aparine), corn (Zea mays), large (Lg) crabgrass (Digitaria sanguinalis), giant foxtail (Setaria faberii), johnsongrass (Sorghum halepense), lambsquarters (Chenopodium album), morningglory (Ipomoea coccinea), yellow nutsedge (Cyperus esculentus), pigweed (Amaranthus retroflexus), ragweed (common ragweed, Ambrosia elatior), soybean (Glycine max), barnyardgrass (Echinochloa crus-galli), oilseed rape (Brassica napus), waterhemp (common waterhemp, Amaranthus rudis), and velvetleaf (Abutilon theophrasti) were planted into a blend of loam soil and sand and treated preemergence with test chemicals formulated in a non-phytotoxic solvent mixture which included a surfactant.
# (§2) At the same time, plants selected from these crop and weed species and also chickweed (common chickweed, Stellaria media), kochia (Kochia scoparia), and wild oat (Avena fatua), were planted in pots containing Redi-Earth® planting medium (Scotts Company, 14111 Scottslawn Road, Marysville, Ohio 43041) comprising spaghnum peat moss, vermiculite, wetting agent and starter nutrients and treated with postemergence applications of test chemicals formulated in the same manner. Plants ranged in height from 2 to 18 cm (1- to 4-leaf stage) for postemergence treatments. Treated plants and controls were maintained in a greenhouse for 13 to 15 days, after which time all species were compared to controls and visually evaluated. Plant response ratings, summarized in Table C, are based on a scale of 0 to 100 where 0 is no effect and 100 is complete control. A dash (-) response means no test result.
# [2] = system: galium (catchweed bedstraw, Galium aparine); details: scale 0 to 100; for pest or weed control at 31 g/ha / pest or weed control at 62 g/ha / pest or weed control at 125 g/ha / pest or weed control at 16 g/ha: Galium, pre-emergence, 336 h, read-out: Plant response rating, Galium; for pest or weed control at 16 g/ha: 16 g ai/ha
# Source text: as §1, §2
# [3] = system: johnsongrass (Sorghum halepense); details: scale 0 to 100; for pest or weed control at 31 g/ha / pest or weed control at 62 g/ha / pest or weed control at 125 g/ha / pest or weed control at 16 g/ha: Sorghum halepense, pre-emergence, 336 h, read-out: Plant response rating, Johnsongrass; for pest or weed control at 16 g/ha: 16 g ai/ha
# Source text: as §1, §2
Structure (SMILES),"pest or weed control at 31 g/ha ([1]; 31 g ai/ha, preemergence) [%]","pest or weed control at 62 g/ha ([1]; 62 g ai/ha, preemergence) [%]","pest or weed control at 125 g/ha ([1]; 125 g ai/ha, preemergence) [%]",pest or weed control at 16 g/ha ([1]; Preemergence) [%],"pest or weed control at 31 g/ha ([2]; 31 g ai/ha, preemergence) [%]","pest or weed control at 62 g/ha ([2]; 62 g ai/ha, preemergence) [%]","pest or weed control at 125 g/ha ([2]; 125 g ai/ha, preemergence) [%]","pest or weed control at 31 g/ha ([3]; 31 g ai/ha, preemergence) [%]","pest or weed control at 62 g/ha ([3]; 62 g ai/ha, preemergence) [%]","pest or weed control at 125 g/ha ([3]; 125 g ai/ha, preemergence) [%]",pest or weed control at 16 g/ha ([3]; Preemergence) [%],pest or weed control at 16 g/ha ([2]; Preemergence) [%],further results
"N#Cc1cccc(Oc2ncc(Br)cn2)c1Oc1ncc(Cl)cn1 [Compound 5, 3-[(5-bromo-2-pyrimidinyl)oxy]-2-[(5-chloro-2-pyrimidinyl)oxy]benzonitrile]",60,85,98,20,50,100,100,40,70,80,0,–,–
N#Cc1cccc(Oc2ncc(Cl)cn2)c1Oc1ccc(Br)cn1 [Compound 15],25,70,98,10,100,95,100,–,–,–,–,100,–
"Clc1cnc(Oc2cccc(Br)c2Oc2ncc(Cl)cn2)nc1 [Compound 19, 2,2′-[[3-bromo-1,2-phenylene]bis(oxy)]bis[5-chloropyrimidine]]",55,100,100,15,100,100,100,50,85,98,35,85,–
FC(F)(F)c1cnc(Oc2c(Br)cccc2Oc2ncc(Cl)cn2)nc1 [Compound 24],–,–,–,–,–,–,–,–,–,–,–,–,"Plant response rating, Barnyardgrass ([1]; 31 g ai/ha, Preemergence): 75; Plant response rating, Barnyardgrass ([1]; 62 g ai/ha, Preemergence): 100; Plant response rating, Barnyardgrass ([1]; 125 g ai/ha, Preemergence): 100; Plant response rating, Barnyardgrass ([1]; 250 g ai/ha, preemergence): 100; Plant response rating, Galium ([2]; 31 g ai/ha, Preemergence): 98; Plant response rating, Galium ([2]; 62 g ai/ha, Preemergence): 98; Plant response rating, Galium ([2]; 125 g ai/ha, Preemergence): 100; Plant response rating, Galium ([2]; 250 g ai/ha, preemergence): 100; Plant response rating, Johnsongrass ([3]; 31 g ai/ha, Preemergence): 40; Plant response rating, Johnsongrass ([3]; 62 g ai/ha, Preemergence): 55; Plant response rating, Johnsongrass ([3]; 125 g ai/ha, Preemergence): 80; Plant response rating, Johnsongrass ([3]; 250 g ai/ha, preemergence): 100"

# Source: US20170190671A1, “BIS(ARYL)CATECHOL DERIVATIVES AS HERBICIDES” (E I DU PONT DE NEMOURS AND COMPANY, priority 2014, published 2017)
